Structures can show the parent of a compound that is named as a salt.
Assays:
NK-2 receptor = molecular target: T1, NK-2 receptor (Homo sapiens, UniProt P21452); details: in vitro for (B); known from Patent Documents 2 and 4; cited from earlier work
T1 sequence (P21452 1-398): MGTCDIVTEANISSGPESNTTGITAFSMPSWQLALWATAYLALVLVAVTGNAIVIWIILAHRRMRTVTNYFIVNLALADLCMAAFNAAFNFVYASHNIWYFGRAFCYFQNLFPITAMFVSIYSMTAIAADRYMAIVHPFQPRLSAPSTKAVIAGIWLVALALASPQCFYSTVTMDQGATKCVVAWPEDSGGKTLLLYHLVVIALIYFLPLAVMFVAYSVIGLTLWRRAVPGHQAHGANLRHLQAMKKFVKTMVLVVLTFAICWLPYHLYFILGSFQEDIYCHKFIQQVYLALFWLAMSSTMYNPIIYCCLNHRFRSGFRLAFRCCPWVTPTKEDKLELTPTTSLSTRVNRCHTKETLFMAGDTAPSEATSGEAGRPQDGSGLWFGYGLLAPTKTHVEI

NK-1 receptor [1] = molecular target: T2, NK-1 receptor (Homo sapiens, UniProt P25103); details: known from Patent Document 4; cited from earlier work
Target sequence in this assay (P25103 whole entry, species assumed): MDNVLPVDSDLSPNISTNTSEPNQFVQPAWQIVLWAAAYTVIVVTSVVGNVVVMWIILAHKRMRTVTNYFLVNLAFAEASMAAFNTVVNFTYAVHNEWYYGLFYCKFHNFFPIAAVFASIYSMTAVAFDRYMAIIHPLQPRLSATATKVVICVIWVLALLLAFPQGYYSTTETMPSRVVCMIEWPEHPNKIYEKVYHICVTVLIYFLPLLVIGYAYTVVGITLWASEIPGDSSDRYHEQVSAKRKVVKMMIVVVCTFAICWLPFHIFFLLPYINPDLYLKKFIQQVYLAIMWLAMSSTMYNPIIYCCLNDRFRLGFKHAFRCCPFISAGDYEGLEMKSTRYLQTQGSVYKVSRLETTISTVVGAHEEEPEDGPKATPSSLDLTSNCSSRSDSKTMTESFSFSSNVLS

[2] = molecular target: T3, Cloned Neurokinin Receptor Subtype 2 Human (Homo sapiens, UniProt P21452); experiment: NK-2 receptor-binding experiment ([3H]-SR48968, CHO cell membranes); details: Table 4; inhibition of [3H]-SR48968 (0.85 nM) binding, pseudo-Hill analysis
T3 construct: purchased Biosignal Packard; host or cells: CHO cells
T3 sequence (P21452 1-398): T1 sequence (P21452 1-398)
Outline: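 Membranes from CHO cells expressing cloned human NK-2 receptor incubated with [3H]-SR48968 (final 0.85 nM) and test compound in 20 mM HEPES, 50 min at 27° C. Bound radioactivity collected by filtration and counted by scintillation; IC50 from pseudo-Hill analysis of percent binding inhibition, nonspecific binding subtracted.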

NK-1 receptor [3] = molecular target: T2, NK-1 receptor; experiment: NK-1 receptor-binding test ([3H]-Substance P, hNK1-CHO cells); parameters: expressed in transfected cells; host or cells: CHO-K1 cells (ATCC: CCL-61), G418-resistant, hNK1-CHO; details: Table 4; inhibition of [3H]-Substance P (0.5 nM) binding to hNK1-CHO cells, pseudo-Hill analysis; read-out: NK-1
Experimental: 1. NK-1 Receptor-binding Test
1) Preparation of Human NK-1 Receptor Expression Cells
FuGene 6 transfection reagent (Boegringer Mannheim) (3 μL) was diluted in an F-12 culture broth (97 μL), and pCR3.1 plasmid to which human NK-1 receptor cDNA had been introduced (Invitrogen) (10 μL) was added thereto. The mixture was mixed and incubated for 15 minutes (transfection reagent). CHO-K1 cells (ATCC: CCL-61) were cultured for 24 hours, and the whole reagent prepared above was added to the cultured CHO-K1 cells ([…]). Subsequently, culture was performed in the presence of G418 (Stratagene), and the resistant cells were employed as cells into which human NK-1 receptor gene was introduced (hNK1-CHO).
2) Subcultivation of hNK1-CHO Cells
The hNK1-CHO cells were treated with trypsin-EDTA and subcultivated in an F-12 culture broth (containing 10% fetal bovine serum, 10 mM HEPES, 100 U/mL, penicillin, 100 μg/mL streptmycin, 400 μg/mL G418) in a 75-cm^2 flask (FALCON). Cells to be employed in the receptor-binding experiment were added to a 24-well plate (IWAKI) at 1×10^5 cells/well, and subcultured for 48 hours at 37° C. under 95% […] and 5% CO2.
3) Receptor-binding Experiment
When the hNK1-CHO cells became subconfluent on the 24-well plate, an F-12 culture broth (containing 10 mM HEPES and 0.1% fetal bovine serum) (450 μL), [^3H]-Substance P (Amersham, final concentration 0.5 nM), and a test compound were added to the cells, and the mixture was incubated for 40 minutes at 37° C. For the measurement of non-specific binding, L703606 (Sigma) was added instead of the test compound. After completion of incubation, the mixture was washed with ice-cooled phosphate buffered saline containing 0.1% fetal bovine serum, and the cells were lysed with 1N NaOH (0.5 mL). The lysate was transfered to a plastic vial containing UltimaGold MV (5 mL), and the radioactivity was determined by means of a liquid liquid scintillation counter (Packard, 2000CA).
Percent radioactive ligand-receptor binding inhibition of each test compound was calculated by use of the following equation, and IC50 (nM) was determined through pseudo-Hill analysis.
Percent inhibition (%)=[1−(C−A)/(B−A)]×100
A: Radioactivity attributed to non-specific binding
B: Radioactivity without test compound
C: Radioactivity with test compound
Target sequence in this assay (P25103 whole entry): as the sequence (P25103 whole entry, species assumed) above

Row | Structure (SMILES) | IC50 [2] | IC50 (NK-1 receptor [3]) | antagonistic activity against NK-2 receptor (NK-2 receptor) | antagonistic activity against NK-1 receptor (NK-1 receptor [1])
1 | CN(C[C@@H](CCN1CCC2(CCc3ccccc32)CC1)c1ccc(Cl)c(Cl)c1)C(=O)c1ccccc1 [compound (B), reference compound] | – | – | exhibits antagonistic activity only to NK-2 receptor | –
2 | COc1cc(C(=O)N2CCO[C@](CCN3CCCC4(C3)c3ccccc3C[S+]4[O-])(c3ccc(Cl)c(Cl)c3)C2)cc(OC)c1OC (some centres unmarked) [(D)] | – | – | excellent antagonistic activity | excellent antagonistic activity
3 | CC(=O)NC1(c2ccccc2)CCN(CCC(CN(C)C(=O)C(F)F)(c2ccc(Cl)c(Cl)c2)N(C)C(=O)NC(c2ccccc2)c2ccccc2)CC1 (centres unmarked) [Compound No. 12, N-[4-(4-Acetylamino-4-phenyl-piperidine-1′-yl)-2-(3-benzhydryl-1-methyl-ureido)-2-(3,4-dichlorophenyl)-butyl]-2,2-difluoro-N-methyl-acetamide hydrochloride] | 6.1 nM | 11 nM | – | –
4 | CN(CC(CCN1CCC2(CC1)c1ccccc1C[S@+]2[O-])(c1ccc(Cl)c(Cl)c1)N(C)C(=O)NC(c1ccccc1)c1ccccc1)C(=O)C(F)(F)Cl (stereo partly drawn) [Compound No. 4, N-{2-(3-benzohydryl-1-methylureido)-2-(3,4-dichlorophenyl)-4-{spiro[benzo(c)thiophene-1(3H),4′-piperidine]-(2S)-oxide}-1′-yl-butyl}-2-chloro-2,2-difluoro-N-methyl-acetamide hydrochloride] | 1.5 nM | 3.4 nM | – | –
5 | CN(C[C@](CCN1CCC2(CC1)NC(=O)Cc1ccccc12)(c1ccc(Cl)c(Cl)c1)N(C)C(=O)NC(c1ccccc1)c1ccccc1)C(=O)C(F)(F)F [Compound No. 46, 1-{1-(2,2,2-trifluoro-N-methylacetamide)-2-(S)-(3,4-dichlorophenyl)-4-[3-oxo-3,4-dihydro-2H-spiro(isoquinoline-1,4′-piperidin)-1′-yl]butan-2-yl}-3-benzhydryl-1-methylurea sulfate] | 1.8 nM | 10.1 nM | – | –

Now from value to molecule, other results behind:

Row | IC50 [2] | IC50 (NK-1 receptor [3]) | Structure (SMILES) | antagonistic activity against NK-2 receptor (NK-2 receptor) | antagonistic activity against NK-1 receptor (NK-1 receptor [1])
6 | 1.9 nM | 6.3 nM | CCC(=O)N(C)CC(CCN1CCC2(CC1)c1ccccc1C[S+]2[O-])(c1ccc(Cl)c(Cl)c1)N(C)C(=O)CC(c1ccccc1)c1ccccc1 [Compound No. 5, N-{2-(3,4-dichlorophenyl)-2-[(3,3-diphenylpropionyl)-methylamino]-4-{spiro[benzo(c)thiophene-1(3H),4′-piperidine]-(2S)-oxide}-1′-yl-butyl}-N-methyl-propionamide hydrochloride] | – | –
7 | 4 nM | 2.1 nM | CN(C[C@](CCN1CCC2(CC1)c1ccccc1C[S@+]2[O-])(c1ccc(Cl)c(Cl)c1)N(C)C(=O)C(c1ccccc1)c1ccccc1)C(=O)CC(F)(F)F [Compound No. 42, N-{2-(S)-(N-methyl-2,2-diphenylacetamide)-2-(3,4-dichlorophenyl)-4-[spiro(benzo(c)thiophene-(2S)-oxido-1(3H),4′-piperidin)-1′-yl]butyl}-3,3,3-trifluoro-N-methylpropanamido hydrochloride] | – | –
8 | 2.8 nM | 4.9 nM | CC(C)C(=O)N(C)C[C@](CCN1CCC2(CC1)c1ccccc1C[S@+]2[O-])(c1ccc(Cl)c(Cl)c1)N(C)C(=O)CC(c1ccccc1)c1ccccc1 [Compound No. 45, N-{2-(S)-(N-methyl-3,3-diphenylpropanamido)-2-(3,4-dichlorophenyl)-4-[spiro(benzo(c)thiophene-(2S)-oxido-1(3H),4′-piperidin)-1′-yl]butyl}-N-methyl-isobutylamide hydrobromide] | – | –
9 | 2.1 nM | 4.3 nM | CC(C)C(=O)N(C)CC(CCN1CCC2(CC1)c1ccccc1C[S+]2[O-])(c1ccc(Cl)c(Cl)c1)N(C)C(=O)CC(c1ccccc1)c1ccccc1 [Compound No. 2, N-{2-(3,4-dichlorophenyl)-2-[(3,3-diphenylpropionyl)-methylamino]-4-{spiro[benzo(c)thiophene-1(3H),4′-piperidine]-(2S)-oxide}-1′-yl-butyl}-N-methyl-isobutylamide hydrochloride] | – | –

— patent US7276511B2, “Benzylamine derivative” (Zeria Pharmaceutical Co., Ltd., priority 2003, dated 2007)
